Laboratory results: US6573377B1, “Pyrazole derivatives and salts thereof” (Daiichi Pharmaceuticals Co., Ltd., priority 1998, dated 2003)
≈ marks a conversion by molar mass, not a printed value. Where a name gives a salt, the structure may show the parent alone. Marks after values point to notes of the source that are not given here. Blank lines part the entries; values can stand above or below the molecule they belong to.

Experiments:
[1] = tested on: human pulmonary carcinoma strain PC-12; test: Growth inhibition of PC-12 cells, MTT assay (Test Example 1); assay type: cell-based; settings: cultured 3 days with sample, absorbance 540 nm; for GI50: Homo sapiens, PC-12, 72 h
Method: A human pulmonary carcinoma strain PC-12 which had been subcultured using RPMI 1640 containing 10% fetal calf serum, 2 mM of L-glutamine and 100 μg/ml of kanamycin sulfate was inoculated into a 96 well microplate at an inoculum size of 1.0×1.0^3 cells/150 μl/well, and 50 μl/well of a sample was added 24 hours thereafter. The cells were then cultured for 3 days, and a 5 mg/ml solution of MTT (3-(4,5-dimethylthiazol-2-yl)-2,5-diphenyl-2H-tetrazolium bromide) was dispensed in 20 μl/well portions. Four hours thereafter, the culture medium was discarded, dimethyl sulfoxide was dispensed in 150 μl/well portions and the absorbance was measured at 540 nm. The antitumor effect was shown by GI50 value (ng/ml) as a drug concentration which reduced cell growth of the drug-added group to 50% of the control group.

[2] = tested on: Mouse fibrosarcoma Meth A; test: Antitumor effect (IR) against subcutaneously transplanted Meth A; assay type: in vivo, mice; settings: judged on the 17th day
mice (Balb/c) = test: Coordination inhibition test, RotaRod (Test Example 2); assay type: in vivo; settings: oral; for T/C (coordination inhibition positive mice/tested mice) After 1 hour: 1 hour after administration; for T/C (coordination inhibition positive mice/tested mice) After 4 hours: 4 hours after administration
Method: Rotation speed of the rotary rod (3 cm in diameter) of RotaRod apparatus (mfd. by Natsume Seisaku-sho) was set to 10 rpm, and mice (Balb/c) which stood on the rod for 60 seconds or more were selected. After 1, 4 or 24 hours of the oral administration of each test sample, these mice were put on the rod, and the mice which dropped within 60 seconds were regarded as coordination inhibition action positive.

SMILES: Cc1c(/C=C/CN2CCN3c4cc(F)ccc4OCC3C2)cnn1-c1nccc(N)n1 (racemic) [Example 3, (+/−)-3-[3-[1-(4-Amino-2-pyrimidinyl)-5-methyl-4-pyrazolyl]-2-trans-propen-1-yl]-9-fluoro-2,3,4,4a,5,6-hexahydro-1H-pyrazino[2,1-c]-1,4-benzoxazine hydrochloride]
GI50 [1]: 20.9 ng/mL

SMILES: Cc1c(/C=C/CN2CCN3c4ccccc4CC3C2)cnn1-c1nccc(N)n1 (racemic) [Example 4, (+/−)-2-[3-[1-(4-Amino-2-pyrimidinyl)-5-methyl-4-pyrazolyl]-2-trans-propen-1-yl]-1,2,3,4,10,10a-hexahydropyrazino[1,2-a]indole hydrochloride]
GI50 [1]: 12.1 ng/mL

SMILES: Cc1c(/C=C/CN2CCN3c4cc(F)ccc4CCC3C2)cnn1-c1nccc(N)n1 (single isomer, unassigned; isomer a) [Example 1, 3-[3-[1-(4-Amino-2-pyrimidinyl)-5-methyl-4-pyrazolyl]-2-trans-propen-1-yl]-9-fluoro-2,3,4,4a,5,6-hexahydro-1H-pyrazino[1,2-a]quinoline hydrochloride (isomer A)]
GI50 Value ([1]; listed as Compound of Example 1): 36.5 ng/mL

SMILES: Cc1c(/C=C/CN2CCN3c4cc(F)ccc4CCC3C2)cnn1-c1nccc(N)n1 (single isomer, unassigned; isomer b) [Example 2, 3-[3-[1-(4-amino-2-pyrimidinyl)-5-methyl-4-pyrazolyl]-2-trans-propen-1-yl]-9-fluoro-2,3,4,4a,5,6-hexahydro-1H-pyrazino[1,2-a]quinoline hydrochloride (isomer B)]
GI50 Value ([1]; listed as Compound of Example 2): 12.1 ng/mL

SMILES: Cc1c(/C=C/CN2CCN3c4cc(F)cc(F)c4CCC3C2)cnn1-c1cc(N(C)CCO)nc(N)n1.Cl (single isomer, unassigned; isomer b) [Example 28, 3-[3-[1-[2-Amino-6-[N-methyl-N-(2-hydroxyethyl)amino-4-pyrimidinyl]-5-methyl-4-pyrazolyl]-2-trans-propen-1-yl]-7,9-difluoro-2,3,4,4a,5,6-hexahydro-1H-pyrazino[1,2-a]quinoline hydrochloride (isomer B)]
GI50 [1]: 0.725 ng/mL

SMILES: Cc1c(/C=C/CN2CCN3c4cc(F)cc(F)c4CCC3C2)cnn1-c1cc(N(CCO)CCO)nc(N)n1 (single isomer, unassigned; isomer b) [Example 29, 3-[3-[1-[2-Amino-6-di(2-hydroxyethyl)amino-4-pyrimidinyl]-5-methyl-4-pyrazolyl]-2-trans-propen-1-yl]-7,9-difluoro-2,3,4,4a,5,6-hexahydro-1H-pyrazino[1,2-a]quinoline hydrochloride (isomer B)]
GI50 [1]: 1.54 ng/mL

SMILES: O=c1[nH]cc(F)c(=O)[nH]1 [Example 5-FU, 5-FU, reference compound]
GI50 Value [1]: 35.5 ng/mL (≈ 0.273 µM)

SMILES: Cc1c(/C=C/CN2CCN3c4cc(F)cc(F)c4CCC3C2)cnn1-c1cc(NCCO)nc(N)n1 (stereo not drawn) [Example 27, 3-[3-[1-[2-Amino-6-(2-hydroxyethyl)amino-4-pyrimidinyl]-5-methyl-4-pyrazolyl]-2-trans-propen-1-yl]-7,9-difluoro-2,3,4,4a,5,6-hexahydro-1H-pyrazino[1,2-a]quinoline hydrochloride]
GI50 [1]: 9.3 ng/mL

Now from value to molecule, other results behind:

GI50 [1]: 2.49 ng/mL
SMILES: Cc1c(/C=C/CN2CCN(c3cc(F)cc(F)c3)CC2)cnn1-c1cc(NCCO)nc(N)n1.Cl [Example 11, 1-[1-[2-Amino-6-(2-hydroxyethyl)amino-4-pyrimidinyl]-5-methyl-4-pyrazolyl]-3-[4-(3,5-difluorophenyl)-1-piperazinyl]-1-trans-propene]

GI50 [1]: 1.6 ng/mL
SMILES: Cc1c(/C=C/CN2CCN(c3cc(F)cc(F)c3)CC2)cnn1-c1cc(N(CCO)CCO)nc(N)n1.Cl [Example 12, 1-[1-[2-Amino-6-di(2-hydroxyethyl)amino-4-pyrimidinyl]-5-methyl-4-pyrazolyl]-3-(4-(3,5-difluorophenyl)-1-piperazinyl]-1-trans-propene hydrochloride]

GI50 [1]: 0.601 ng/mL
SMILES: Cc1c(/C=C/CN2CCN(c3cc(F)cc(F)c3)CC2)cnn1-c1cc(N2CC(O)C2)nc(N)n1.Cl [Example 13, 1-[1-[2-Amino-6-(3-hydroxy-1-azetidinyl)-4-pyrimidinyl]-5-methyl-4-pyrazolyl]-3-[4-(3,5-difluorophenyl)-1-piperazinyl]-1-trans-propene hydrochloride]
antitumor effect (IR) ([2]; oral 5 mg × 4 times (d7-10)): 5 mg × 4 times (IR 92%)*
T/C (coordination inhibition positive mice/tested mice) After 1 hour (mice (Balb/c); dose 5 mg): 0/6
T/C (coordination inhibition positive mice/tested mice) After 4 hours (mice (Balb/c); dose 5 mg): 0/6
T/C (coordination inhibition positive mice/tested mice) After 1 hour (mice (Balb/c); dose 10 mg): 0/6
T/C (coordination inhibition positive mice/tested mice) After 4 hours (mice (Balb/c); dose 10 mg): 0/6
T/C (coordination inhibition positive mice/tested mice) After 1 hour (mice (Balb/c); dose 12 mg): 1/6
T/C (coordination inhibition positive mice/tested mice) After 4 hours (mice (Balb/c); dose 12 mg): 2/6

GI50 [1]: 26.6 ng/mL
SMILES: Cc1c(/C=C/CN2CCN(c3cc(F)cc(F)c3)CC2)cnn1-c1cc(NCCN)nc(N)n1.Cl [Example 15, 1-[1-[2-Amino-6-(2-aminoethyl)amino-4-pyrimidinyl]-5-methyl-4-pyrazolyl]-3-[4-(3,5-difluorophenyl)-1-piperazinyl]-1-trans-propene hydrochloride]

GI50 [1]: 2.35 ng/mL
SMILES: Cc1c(/C=C/CN2CCN(c3cc(F)cc(F)c3)CC2)cnn1-c1cc(N2CC(N)C2)nc(N)n1.Cl [Example 19, 1-[1-[2-Amino-6-(3-amino-1-azetidinyl)-4-pyrimidinyl]-5-methyl-4-pyrazolyl]-3-[4-(3,5-difluorophenyl)-1-piperazinyl]-1-trans-propene hydrochloride]

GI50 [1]: 3.39 ng/mL
SMILES: Cc1c(/C=C/CN2CCN(c3cc(F)cc(F)c3)CC2)cnn1-c1nc(N)cc(N2CC(O)C2)n1.Cl [Example 21, 1-[1-[4-Amino-6-(3-hydroxy-1-azetidinyl)-2-pyrimidinyl]-5-methyl-4-pyrazolyl]-3-[4-(3,5-difluorophenyl)-1-piperazinyl]-1-trans-propene hydrochloride]

GI50 [1]: 6.29 ng/mL
SMILES: Cc1c(/C=C/CN2CCN(c3cc(F)cc(F)c3)CC2)cnn1-c1nc(N)cc(N2CCC2)n1 [Example 26, 1-[[4-Amino-6-(1-azetidinyl)-2-pyrimidinyl]-5-methyl-4-pyrazolyl]-3-[4-(3,5-difluorophenyl)-1-piperazinyl]-1-trans-propene hydrochloride]

GI50 [1]: 11.3 ng/mL
SMILES: Cc1c(/C=C/CN2CCN(c3cc(F)cc(F)c3)CC2)cnn1-c1cc(N2CC(C)(O)C2)nc(N)n1.Cl [Example 54, 1-[1-[2-Amino-6-(3-hydroxy-3-methyl-1-azetidinyl)-4-pyrimidinyl]-5-methyl-4-pyrazolyl]-3-[4-(3,5-difluorophenyl)-1-piperazinyl]-1-trans-propene hydrochloride]
antitumor effect (IR) ([2]; oral 10 mg × 4 times (d7-10)): 10 mg × 4 times (IR 89%)*
T/C (coordination inhibition positive mice/tested mice) After 1 hour (mice (Balb/c); dose 10 mg): 0/6
T/C (coordination inhibition positive mice/tested mice) After 4 hours (mice (Balb/c); dose 10 mg): 0/6
T/C (coordination inhibition positive mice/tested mice) After 1 hour (mice (Balb/c); dose 30 mg): 0/6
T/C (coordination inhibition positive mice/tested mice) After 4 hours (mice (Balb/c); dose 30 mg): 0/6
